{"source": "patent US10722514B2", "about": "(FLX Bio, Inc., priority 2017, dated 2020)", "note": "Where a name gives a salt, the structure may show the parent alone.", "data": [{"target": "T1, recombinant full-length USP7 (Homo sapiens, UniProt Q93009)", "T1 construct": "A 25 μl reaction volume containing recombinant full-length USP7 (62 pM)", "T1 sequence (Q93009 whole entry)": "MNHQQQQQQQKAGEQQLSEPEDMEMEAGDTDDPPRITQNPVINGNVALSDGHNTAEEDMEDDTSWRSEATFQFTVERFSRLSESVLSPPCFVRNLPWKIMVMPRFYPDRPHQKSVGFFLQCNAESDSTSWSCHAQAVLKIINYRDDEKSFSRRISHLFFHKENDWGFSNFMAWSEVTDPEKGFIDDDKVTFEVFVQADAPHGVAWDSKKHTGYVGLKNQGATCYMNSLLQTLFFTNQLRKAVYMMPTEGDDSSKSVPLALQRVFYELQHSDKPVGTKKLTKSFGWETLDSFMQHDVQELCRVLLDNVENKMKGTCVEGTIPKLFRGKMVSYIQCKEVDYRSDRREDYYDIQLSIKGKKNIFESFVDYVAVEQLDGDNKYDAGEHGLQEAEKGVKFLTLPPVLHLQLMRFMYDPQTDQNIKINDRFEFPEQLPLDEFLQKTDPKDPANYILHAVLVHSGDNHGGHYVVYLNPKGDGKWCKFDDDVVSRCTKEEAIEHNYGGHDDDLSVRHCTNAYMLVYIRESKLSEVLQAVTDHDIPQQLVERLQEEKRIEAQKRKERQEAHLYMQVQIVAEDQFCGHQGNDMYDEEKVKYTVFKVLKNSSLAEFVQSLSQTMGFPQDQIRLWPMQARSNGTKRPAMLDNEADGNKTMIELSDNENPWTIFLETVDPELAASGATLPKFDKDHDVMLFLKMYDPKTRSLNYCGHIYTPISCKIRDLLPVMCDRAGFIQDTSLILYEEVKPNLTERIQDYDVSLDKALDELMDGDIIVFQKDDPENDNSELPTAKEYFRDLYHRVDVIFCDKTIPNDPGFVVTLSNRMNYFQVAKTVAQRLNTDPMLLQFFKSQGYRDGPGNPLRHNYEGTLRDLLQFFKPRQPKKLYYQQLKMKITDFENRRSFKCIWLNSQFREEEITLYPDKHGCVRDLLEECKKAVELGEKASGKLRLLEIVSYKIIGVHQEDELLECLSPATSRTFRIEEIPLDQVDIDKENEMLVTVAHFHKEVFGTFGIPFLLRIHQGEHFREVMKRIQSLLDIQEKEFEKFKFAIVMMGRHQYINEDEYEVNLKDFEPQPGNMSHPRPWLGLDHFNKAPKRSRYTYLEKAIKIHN", "assay": "USP7-mediated ubiquitin-rhodamine cleavage assay", "assay_type": "biochemical", "conditions": "recombinant full-length USP7 62 pM; ubiquitin-rhodamine 100 nM; 30-minute incubation with compound, 1 hour reaction at room temperature; read-out: Potency: USP7 IC50", "how_it_was_run": "(§1)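 Enzyme 62 pM; HEPES pH 7.3/150 mM NaCl/1 mM TCEP/125 μg/ml BSA; 1% DMSO; 30 min cpd preinc RT; Ub-rhodamine 100 nM, 1 h RT, dark; acetic acid stop; fluorescence; IC50 4-param fit.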", "units": {"IC50": "nM"}, "values": [{"smiles": "Cc1cc(Cl)cc(-c2ccnc3ccsc23)c1O[C@H]1CCCN(C)C1", "note": "[Example 240, (S)-7-(5-Chloro-3-methyl-2-((1-methylpiperidin-3-yl)oxy)phenyl)thieno[3,2-b]pyridine]", "IC50": "> 30000"}, {"smiles": "Cc1cc(Cl)cc(-c2ccnc3cc(CN4C(=O)NC(C)(C)C4=O)sc23)c1OC1CCNCC1", "note": "[Example 185, 3-((7-(5-Chloro-3-methyl-2-(piperidin-4-yloxy)phenyl)thieno[3,2-b]pyridin-2-yl)methyl)-5,5-dimethylimidazolidine-2,4-dione]", "IC50": "< 1000"}, {"smiles": "Cc1cc(Cl)cc(-c2ccnc3ccsc23)c1O[C@H]1CCCNC1", "note": "[Example 167, (S)-7-(5-Chloro-3-methyl-2-(piperidin-3-yloxy)phenyl)thieno[3,2-b]pyridine]", "IC50": "10000 to 30000"}, {"smiles": "OCc1cc2nccc(-c3cc(Cl)cc(Br)c3O[C@H]3CCCNC3)c2s1", "note": "[Example 166, (S)-(7-(3-Bromo-5-chloro-2-(piperidin-3-yloxy)phenyl)thieno[3,2-b]pyridin-2-yl)methanol]", "IC50": "1000 to 10000"}, {"smiles": "Cc1cc(Cl)cc(-c2ccnc3cc(Cn4c(=O)ccn(C)c4=O)sc23)c1O[C@H]1CCCNCC1", "note": "[Example 8, (S)-3-((7-(2-(Azepan-4-yloxy)-5-chloro-3-methylphenyl)thieno[3,2-b]pyridin-2-yl)methyl)-1-methylpyrimidine-2,4(1H,3H)-dione]", "IC50": "< 1000"}, {"smiles": "O=C1CCC(=O)N1Cc1cc2nccc(-c3cc(Cl)cc(C(F)(F)F)c3O[C@@H]3CNC[C@@H]3F)c2s1", "note": "[Example 120, 1-((7-(5-Chloro-2-(((3R,4S)-4-fluoropyrrolidin-3-yl)oxy)-3-(trifluoromethyl)phenyl)thieno[3,2-b]pyridin-2-yl)methyl)pyrrolidine-2,5-dione]", "IC50": "< 1000"}, {"smiles": "Cc1cc(Cl)cc(-c2ncnc3cc(Cn4c(=O)ccn(CC(F)(F)F)c4=O)sc23)c1O[C@@H]1CCNC[C@@H]1F", "note": "[Example 170, 3-((4-(5-Chloro-2-(((3S,4R)-3-fluoropiperidin-4-yl)oxy)-3-methylphenyl)thieno[3,2-d]pyrimidin-6-yl)methyl)-1-(2,2,2-trifluoroethyl)pyrimidine-2,4(1H,3H)-dione]", "IC50": "< 1000"}, {"smiles": "Cc1cc(Cl)cc(-c2ncnc3cc(CN4C(=O)C5CC5C4=O)sc23)c1O[C@@H]1CN(C)C[C@@H]1F", "note": "(stereo partly drawn) [Example 353, 3-[[4-[5-chloro-2-[(3R,4S)-4-fluoro-1-methyl-pyrrolidin-3-yl]oxy-3-methyl-phenyl]thieno[3,2-d]pyrimidin-6-yl]methyl]-3-azabicyclo[3.1.0]hexane-2,4-dione dihydrochloride]", "IC50": "< 1000"}, {"smiles": "CCC(O)c1cc2nccc(-c3cc(C#N)cc(C)c3OCC3(C)CNC3)c2s1", "note": "(stereo not drawn) [Example 31, 3-(2-(1-Hydroxypropyl)thieno[3,2-b]pyridin-7-yl)-5-methyl-4-((3-methylazetidin-3-yl)methoxy)benzonitrile]", "IC50": "1000 to 10000"}, {"smiles": "Cc1cc(Cl)cc(-c2ccnc3cc(CN4C(=O)CCC4=O)sc23)c1O[C@H]1C[C@H]2CN[C@@H]1C2", "note": "[Example 220, 1-((7-(2-(((1R,4S,6S)-2-azabicyclo[2.2.1]heptan-6-yl)oxy)-5-chloro-3-methylphenyl)thieno[3,2-b]pyridin-2-yl)methyl)pyrrolidine-2,5-dione]", "IC50": "< 1000"}, {"smiles": "CCC(O)c1cc2nccc(-c3cc(Cl)cc(C)c3OC3CCNC3=O)c2s1", "note": "(stereo not drawn) [Example 87, 3-(4-Chloro-2-(2-(1-hydroxypropyl)thieno[3,2-b]pyridin-7-yl)-6-methylphenoxy)pyrrolidin-2-one]", "IC50": "10000 to 30000"}, {"smiles": "Cc1cc(Cl)cc(-c2ccnc3cc(CO)sc23)c1OC[C@@H]1CNCCN1", "note": "[Example 168, (S)-(7-(5-Chloro-3-methyl-2-(piperazin-2-ylmethoxy)phenyl)thieno[3,2-b]pyridin-2-yl)methanol]", "IC50": "10000 to 30000"}, {"smiles": "Cc1cc(Cl)cc(-c2ccnc3cc(CN4C(=O)CCC4=O)sc23)c1O[C@@H]1CN[C@H](CO)C1", "note": "[Example 116, 1-((7-(5-Chloro-2-(((3S,5S)-5-(hydroxymethyl)pyrrolidin-3-yl)oxy)-3-methylphenyl)thieno[3,2-b]pyridin-2-yl)methyl)pyrrolidine-2,5-dione]", "IC50": "< 1000"}]}, {"target": "T1, recombinant full-length USP7", "assay": "USP7-mediated ubiquitin-rhodamine cleavage assay", "assay_type": "biochemical", "conditions": "recombinant full-length USP7 62 pM; ubiquitin-rhodamine 100 nM; 30-minute pre-incubation, 1 hour reaction at room temperature; read-out: Potency (USP7 IC50)", "how_it_was_run": "as §1", "units": {"IC50": "nM"}, "values": [{"smiles": "Cc1cc(Cl)cc(-c2ccnc3cc(Cn4c(=O)ccn(C)c4=O)sc23)c1O[C@@H]1CC[C@@H](NCCO)C1", "note": "[Example 531, 3-[[7-[5-chloro-2-[(1R,3R)-3-(2-hydroxyethylamino)cyclopentoxy]-3-methyl-phenyl]thieno[3,2-b]pyridin-2-yl]methyl]-1-methyl-pyrimidine-2,4-dione; 2,2,2-trifluoroacetic acid]", "IC50": "< 1000"}, {"smiles": "Cc1cc(Cl)cc(-c2ccnc3cc(Cn4c(=O)ccn(C)c4=O)sc23)c1OCC1(C(F)F)CNC1", "note": "[Example 533, 3-[[7-[5-chloro-2-[[3-(difluoromethyl)azetidin-3-yl]methoxy]-3-methyl-phenyl]thieno[3,2-b]pyridin-2-yl]methyl]-1-methyl-pyrimidine-2,4-dione]", "IC50": "< 1000"}, {"smiles": "Cc1cc(Cl)cc(-c2ccnc3cc(Cn4c(=O)ccn(C)c4=O)sc23)c1O[C@@H]1CCCN[C@@H]1C", "note": "[Example 468, 3-[[7-[5-chloro-3-methyl-2-[[(2R,3R)-2-methyl-3-piperidyl]oxy]phenyl]thieno[3,2-b]pyridin-2-yl]methyl]-1-methyl-pyrimidine-2,4-dione; 2,2,2-trifluoroacetic acid]", "IC50": "< 1000"}, {"smiles": "Cc1cc(Cl)cc(-c2ccnc3cc(Cn4c(=O)c(F)cn(C)c4=O)sc23)c1O[C@H]1CCCNC1", "note": "[Example 422, 3-[[7-[5-chloro-3-methyl-2-[[(3S)-3-piperidyl]oxy]phenyl]thieno[3,2-b]pyridin-2-yl]methyl]-5-fluoro-1-methyl-pyrimidine-2,4-dione]", "IC50": "< 1000"}, {"smiles": "CC[C@@H]1C[C@H](Oc2c(C)cc(Cl)cc2-c2ccnc3cc(Cn4c(=O)ccn(CC(F)(F)F)c4=O)sc23)CCN1", "note": "[Example 636, 3-[[7-[5-chloro-2-[[(2R,4R)-2-ethyl-4-piperidyl]oxy]-3-methyl-phenyl]thieno[3,2-b]pyridin-2-yl]methyl]-1-(2,2,2-trifluoroethyl)pyrimidine-2,4-dione]", "IC50": "< 1000"}, {"smiles": "Cc1cc(Cl)cc(-c2ccnc3cc(Cn4c(=O)[nH]cc(F)c4=O)sc23)c1O[C@H]1CCCNC1", "note": "[Example 420, 3-[[7-[5-chloro-3-methyl-2-[[(3S)-3-piperidyl]oxy]phenyl]thieno[3,2-b]pyridin-2-yl]methyl]-5-fluoro-1H-pyrimidine-2,4-dione]", "IC50": "< 1000"}, {"smiles": "Cc1cc(Cl)cc(-c2ccnc3cc(Cn4c(=O)ccn(C)c4=O)sc23)c1O[C@H]1CN[C@@H](C(=O)O)C1", "note": "[Example 601, (2R,4R)-4-[4-chloro-2-methyl-6-[2-[(3-methyl-2,6-dioxo-pyrimidin-1-yl)methyl]thieno[3,2-b]pyridin-7-yl]phenoxy]pyrrolidine-2-carboxylic acid]", "IC50": "1000 to 10000"}, {"smiles": "Cc1cc(Cl)cc(-c2ccnc3cc(Cn4c(=O)ccn(C(C)C)c4=O)sc23)c1O[C@H]1CCCNC1", "note": "[Example 447, 3-[[7-[5-chloro-3-methyl-2-[[(3S)-3-piperidyl]oxy]phenyl]thieno[3,2-b]pyridin-2-yl]methyl]-1-isopropyl-pyrimidine-2,4-dione]", "IC50": "< 1000"}]}]}
